The test system of experiment [1] is A2780. Put plainly: Antiproliferative activity against human A2780 cells incubated for 72 hrs by live-cell imaging based assay. Type of experiment: functional. As to conditions: A2780, 72 h.
The test system of experiment [2] is A2780. Put plainly: Antiproliferative activity against D4-9-31 resistance human A2780 cells incubated for 72 hrs by ATPlite reagent based assay. Type of experiment: functional, cell-based. As to conditions: A2780, 72 h.
Experiment [3] deals with A2780. The experiment can be described thus: Antiproliferative activity against human A2780 cells assessed as reduction in mitochondrial respiration. The format is functional, cell-based.
In experiment [4] the test system is A2780. Put plainly: Antiproliferative activity against human A2780 cells incubated for 72 hrs by ATPlite reagent based assay. The format is functional, cell-based. As to conditions: A2780, 72 h. For orientation: ATP-based viability assays read luminescence as a measure of living cells.
The subject of experiment [5] is A2780. The experiment can be described thus: Antiproliferative activity against D4-9-31 resistance human A2780 cells assessed as reduction in mitochondrial respiration. Type of experiment: functional, cell-based.

These results are taken from ChEMBL document CHEMBL4665649, “Resistance mechanisms and cross-resistance for a pyridine-pyrimidine amide inhibitor of microtubule polymerization” (Bioorg Med Chem Lett, 2019).

pEC50: −log10 of the molar value. The source made the active and inactive calls. The rule behind the calls is not given here.

`Cc1ncc(C(=O)Nc2ccc(-c3cccc(S(=O)(=O)C4CC4)c3)cn2)cn1`: the figures for the negative logarithm of the EC50 (pEC50) with A2780 [1], in the experiment with A2780 [2] and in the experiment on A2780 [4] were 7.92, 7.64 and 8.00, respectively. Moreover, the outcome with A2780 [3] and in the experiment on A2780 [5] was Active.
On to `COc1cc2c(c(OC)c1OC)-c1ccc(OC)c(=O)cc1[C@@H](NC(C)=O)CC2` [COLCHICINE], for which the negative logarithm of the EC50 (pEC50) with A2780 [2] is 8.06; in the experiment on A2780 [4], 8.04.
With `O=C(Nc1ccncc1)C(=O)c1cn(Cc2ccc(Cl)cc2)c2ccccc12` [INDIBULIN], the negative-log EC50 (pEC50) with A2780 [2] is 7.70; in the experiment on A2780 [4], 7.72.
For `CC(=O)O[C@H]1C(=O)[C@@]2(C)[C@H]([C@H](OC(=O)c3ccccc3)[C@]3(O)C[C@H](OC(=O)[C@H](O)[C@@H](NC(=O)c4ccccc4)c4ccccc4)C(C)=C1C3(C)C)[C@]1(OC(C)=O)CO[C@@H]1C[C@@H]2O` [PACLITAXEL], the pEC50 in the experiment on A2780 [2] is 8.62; with A2780 [4], 8.60.
For `C/C(=C\c1csc(C)n1)[C@@H]1C[C@@H]2O[C@]2(C)CCC[C@H](C)[C@H](O)[C@@H](C)C(=O)C(C)(C)[C@@H](O)CC(=O)O1` [PATUPILONE], the pEC50 was 8.40 in the experiment on A2780 [2] and 8.28 in the experiment with A2780 [4].
For `CC[C@]1(O)C[C@H]2CN(CCc3c([nH]c4ccccc34)[C@@](C(=O)OC)(c3cc4c(cc3OC)N(C=O)[C@H]3[C@@](O)(C(=O)OC)[C@H](OC(C)=O)[C@]5(CC)C=CCN6CC[C@]43[C@@H]65)C2)C1` [VINCRISTINE], the values for the pEC50 with A2780 [2] and in the experiment on A2780 [4] were 8.41 and 8.47, respectively.

Broadly, the pEC50 is the negative decadic logarithm of the EC50, by convention in mol/L. Higher therefore signals a small EC50.
